Assay results as given in ChEMBL document CHEMBL5505982, “Design, synthesis, biological evaluation and in silico studies of novel quinoline derivatives as potential radioprotective molecules targeting the TLR2 and p53 pathways” (Eur J Med Chem, 2024).
The source made the active and inactive calls. No cut-off for these calls is given here.

Key:
[1] = tested on: AHH-1; assay: Cytotoxicity against human AHH-1 cells assessed as inhibition of cell growth incubated for 24 hrs by CCK-8 assay; format: functional, cell-based; conditions: AHH-1, 24 h
[2] = tested on: AHH-1; assay: Anti-iradiation activity against human AHH-1 cells assessed as cell viability at 10 micromol preincubated with compound for 24 hrs followed by irradiation with 8 Gy and measured after 24 hrs by CCK-8 assay; format: functional; conditions: dose 10 µmol; time 48 hrs
[3] = tested on: Mus musculus; assay: Radioprotective activity in C57BL/6J mouse assessed as increase in body weight at 30 mg/kg, ip preincubated with compound for 15 to 1440 mins followed by irradiation and measured after 10, 14, 18, 22 and 30 days; format: functional, organism-based; conditions: time 15-44640 min
[4] = tested on: Mus musculus; assay: Radioprotective activity in irradiated C57BL/6J mouse model assessed as increase in WBC count at 300 mg/kg, ip preincubated with compound for 15 to 1440 mins followed by irradiation with 6.5 Gy and measured on day 1 (reference value: 43.39%); format: functional; conditions: time 15-2880 min
[5] = tested on: Mus musculus; assay: Radioprotective activity in C57BL/6J mouse assessed as increase in WBC count at 300 mg/kg, ip preincubated with compound for 15 to 1440 mins followed by irradiation at 6.5 Gy and measured at 1 to 10 days relative to Ex/RAD/control; format: functional, organism-based
[6] = tested on: Mus musculus; assay: Radioprotective activity in irradiated C57BL/6J mouse model assessed as increase in WBC count at 300 mg/kg, ip preincubated with compound for 15 to 1440 mins followed by irradiation with 6.5 Gy and measured after 10 to 13 days of radiation relative to Ex-RAD/control; format: functional, organism-based
[7] = tested on: Mus musculus; assay: Radioprotective activity in irradiated C57BL/6J mouse model assessed as increase in RBC count at 300 mg/kg, ip preincubated with compound for 15 to 1440 mins followed by irradiation with 6.5 Gy and measured after 13 days of radiation; format: functional, organism-based; conditions: Erythrocyte, time 15-20160 min
[8] = tested on: Mus musculus; assay: Radioprotective activity in irradiated C57BL/6J mouse model assessed as increase in platelets count at 300 mg/kg, ip preincubated with compound for 15 to 1440 mins followed by irradiation with 6.5 Gy and measured after 2 days of radiation; format: functional, organism-based; conditions: time 15-4320 min
[9] = tested on: Mus musculus; assay: Radioprotective activity in irradiated C57BL/6J mouse model assessed as increase in platelets count at 300 mg/kg, ip preincubated with compound for 15 to 1440 mins followed by irradiation with 6.5 Gy and measured after 3 to 10 days of radiation; format: functional, organism-based
[10] = tested on: Mus musculus; assay: Radioprotective activity in irradiated C57BL/6J mouse model assessed as increase in HGB count at 300 mg/kg, ip preincubated with compound for 15 to 1440 mins followed by irradiation with 6.5 Gy and measured after 1 to 10 days of radiation; format: functional, organism-based
[11] = tested on: Mus musculus; assay: Radioprotective activity in irradiated C57BL/6J mouse model assessed as increase in HGB count at 300 mg/kg, ip preincubated with compound for 15 to 1440 mins followed by irradiation with 6.5 Gy and measured after 10 days of radiation relative to Ex-rad/control; format: functional, organism-based; conditions: time 15-15840 min
[12] = tested on: Mus musculus; assay: Radioprotective activity in irradiated C57BL/6J mouse model assessed as increase in HGB count at 300 mg/kg, ip preincubated with compound for 15 to 1440 mins followed by irradiation with 6.5 Gy and measured after 13 days of radiation; format: functional, organism-based; conditions: time 15-20160 min
[13] = tested on: Mus musculus; assay: (§1) Radioprotective activity against radiation-induced intestinal injury C57BL/6J mouse model assessed as increase in villi length at 300 mg/kg, ip preincubated with compound for 15 to 1440 mins followed by irradiation with 13 Gy and measured after 84 hrs of radiation by H and E staining based analysis; format: functional, organism-based; conditions: time 15-6480 min
[14] = tested on: Mus musculus; assay: as §1, with “number of crypt foci” for “villi length”; format: functional, organism-based; conditions: time 15-6480 min
[15] = tested on: Mus musculus; assay: Radioprotective activity against radiation-induced intestinal injury C57BL/6J mouse model assessed as increase in splenic index at 300 mg/kg, ip preincubated with compound for 15 to 1440 mins followed by irradiation with 13 Gy and measured after 84 hrs of radiation by H and E staining based analysis; format: functional, organism-based; conditions: time 15-6480 min
[16] = tested on: AHH-1; assay: Induction of apoptosis in human AHH-1 cells assessed as early apoptotic cells preincubated with compound for 24 hrs followed by irradiation with 4 Gy and measured after 24 hrs of radiation by Annexin V-FITC/PI staining based flow cytometry analysis (reference value: 14.3%); format: functional; conditions: time 48 hrs
[17] = tested on: AHH-1; assay: Induction of apoptosis in human AHH-1 cells assessed as late apoptotic cells preincubated with compound for 24 hrs followed by irradiation with 4 Gy and measured after 24 hrs of radiation by Annexin V-FITC/PI staining based flow cytometry analysis (reference value: 17.7%); format: functional; conditions: time 48 hrs
[18] = tested on: AHH-1; assay: Induction of apoptosis in human AHH-1 cells assessed as necrotic cells preincubated with compound for 24 hrs followed by irradiation with 4 Gy and measured after 24 hrs of radiation by Annexin V-FITC/PI staining based flow cytometry analysis (reference value: 1.06%); format: functional; conditions: time 48 hrs
[19] = tested on: AHH-1; assay: Induction of apoptosis in human AHH-1 cells assessed as early apoptotic cells preincubated with compound for 24 hrs followed by irradiation with 6 Gy and measured after 24 hrs of radiation by Annexin V-FITC/PI staining based flow cytometry analysis (reference value: 14.1%); format: functional; conditions: time 48 hrs
[20] = tested on: AHH-1; assay: Induction of apoptosis in human AHH-1 cells assessed as viable cells preincubated with compound for 24 hrs followed by irradiation with 8 Gy and measured after 24 hrs of radiation by Annexin V-FITC/PI staining based flow cytometry analysis (reference value: 45.1%); format: functional; conditions: time 48 hrs
[21] = tested on: AHH-1; assay: Induction of apoptosis in human AHH-1 cells assessed as early apoptotic cells preincubated with compound for 24 hrs followed by irradiation with 8 Gy and measured after 24 hrs of radiation by Annexin V-FITC/PI staining based flow cytometry analysis (reference value: 16.5%); format: functional; conditions: time 48 hrs
[22] = tested on: AHH-1; assay: Induction of apoptosis in human AHH-1 cells assessed as late apoptotic cells preincubated with compound for 24 hrs followed by irradiation with 8 Gy and measured after 24 hrs of radiation by Annexin V-FITC/PI staining based flow cytometry analysis (reference value: 33.6%); format: functional; conditions: time 48 hrs
[23] = tested on: AHH-1; assay: Induction of apoptosis in human AHH-1 cells assessed as necrotic cells preincubated with compound for 24 hrs followed by irradiation with 8 Gy and measured after 24 hrs of radiation by Annexin V-FITC/PI staining based flow cytometry analysis (reference value: 4.86%); format: functional; conditions: time 48 hrs
[24] = tested on: AHH-1; assay: Radioprotective activity against human AHH-1 cells assessed as decrease in p53 expression pretreated with compound for 24 hrs in presence of ionizing irradiation by Western blotting analysis; format: functional, cell-based
[25] = tested on: AHH-1; assay: Radioprotective activity against human AHH-1 cells assessed as decrease in Bax expression pretreated with compound for 24 hrs in presence of ionizing irradiation by Western blotting analysis; format: functional, cell-based
[26] = biological target: T1, Toll-like receptor 2 (Homo sapiens, UniProt O60603); assay: Binding affinity to TLR2 (unknown origin) assessed as dissociation constant by SPR analysis
T1 sequence (O60603 whole entry): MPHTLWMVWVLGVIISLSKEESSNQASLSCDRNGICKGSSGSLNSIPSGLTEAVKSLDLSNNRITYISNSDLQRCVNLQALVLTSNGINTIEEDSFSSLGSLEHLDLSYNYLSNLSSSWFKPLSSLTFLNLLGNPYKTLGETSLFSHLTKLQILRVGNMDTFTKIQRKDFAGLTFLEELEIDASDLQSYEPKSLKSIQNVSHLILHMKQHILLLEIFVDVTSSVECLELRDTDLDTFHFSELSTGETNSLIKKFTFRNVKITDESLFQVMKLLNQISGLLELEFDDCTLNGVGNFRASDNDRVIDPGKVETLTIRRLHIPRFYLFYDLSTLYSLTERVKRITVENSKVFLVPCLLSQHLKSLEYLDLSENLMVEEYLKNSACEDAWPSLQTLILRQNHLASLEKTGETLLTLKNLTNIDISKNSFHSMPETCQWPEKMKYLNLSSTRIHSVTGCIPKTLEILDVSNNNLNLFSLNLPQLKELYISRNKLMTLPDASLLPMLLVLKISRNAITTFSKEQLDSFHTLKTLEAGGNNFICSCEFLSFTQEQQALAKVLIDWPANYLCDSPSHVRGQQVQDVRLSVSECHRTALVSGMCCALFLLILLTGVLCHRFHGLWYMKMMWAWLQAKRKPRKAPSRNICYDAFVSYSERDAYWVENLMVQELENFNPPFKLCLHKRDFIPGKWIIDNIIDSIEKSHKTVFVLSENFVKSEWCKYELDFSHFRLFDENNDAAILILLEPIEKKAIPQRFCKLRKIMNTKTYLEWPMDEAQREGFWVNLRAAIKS

[27] = biological target: T1, Toll-like receptor 2; assay: Binding affinity to TLR2 (unknown origin) by SPR analysis; conditions: filed as agonist, dose 3-100 µM

`[O-][S+](Cc1ccc(F)cc1)c1ccc2cc(Br)ccc2n1` (configuration not stated) was tested, and the IC50 [1] was 154 µM, the Activity [2] was 55.86% and the Activity [3] was “Active”. For the same compound, the Activity [4] was 38.66%, the Activity [5] was “Active” and the Activity [6] was “Active”. For the same compound, the Activity [7] was “Active”, the Activity [8] was “Active” and the Activity [9] was “inactive”. For the same compound, the Activity [10] was “inactive”, the Activity [11] was “Active” and the Activity [12] was “Active”. The Activity [13] was “Active”, the Activity [14] was “Active” and the Activity [15] was “Active”. For the same compound, the Activity [16] was 14%, the Activity [17] was 12.2% and the Activity [18] was 1.4%. For the same compound, the Activity [19] was 13.7%, the Activity [20] was 67.3% and the Activity [21] was 10.8%. For the same compound, the Activity [22] was 17.8%, the Activity [23] was 4% and the Activity [24] was “Active”. The Activity [25] was “Active”, the Kd [26] was 3.56 µM and the Activity [27] was “Dose-Dependent Effect”.
